biological target: HPK1 (Homo sapiens (Human), UniProt Q92918); test: HPK1 Inhibition Assay (ADP-Glo kinase assay); type: biochemical; conditions: ATP 10 μM
Outline: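 ADP-Glo luminescence read-out after 1 h room-temperature kinase reaction with 10 μM ATP and 0.1 μg/ml MBP. Recombinant human HPK1 at 7.5 ng/μl; buffer 40 mM Tris pH 7.5, 20 mM MgCl2. Compounds serially diluted 5-fold over 10 points from 10 mM DMSO stock.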

Sequence of HPK1 (Q92918 1-346 limits assumed): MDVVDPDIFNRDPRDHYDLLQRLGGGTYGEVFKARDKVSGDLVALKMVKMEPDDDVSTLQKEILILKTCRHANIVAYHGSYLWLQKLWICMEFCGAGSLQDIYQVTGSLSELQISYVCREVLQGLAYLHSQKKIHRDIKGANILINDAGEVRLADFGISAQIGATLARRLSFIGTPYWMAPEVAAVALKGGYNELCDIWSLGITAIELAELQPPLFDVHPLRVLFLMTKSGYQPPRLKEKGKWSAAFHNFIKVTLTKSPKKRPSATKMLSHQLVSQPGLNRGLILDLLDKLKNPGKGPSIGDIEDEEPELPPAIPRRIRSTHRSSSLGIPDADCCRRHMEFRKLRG

IC50, < 100 nM:
CC(C)n1cc2c(N3CCC(N)CC3)c(NC(=O)c3ccc(=O)n(-c4c(F)cccc4F)n3)ccc2n1 [Example 230, N-(4-(4-aminopiperidin-1-yl)-2-isopropyl-2H-indazol-5-yl)-1-(2,6-difluorophenyl)-6-oxo-1,6-dihydropyridazine-3-carboxamide]
CC(C)n1cc2c(N3C[C@H](C)[C@@H](N)C3)c(NC(=O)c3ccc(=O)n(-c4c(F)cccc4F)n3)ccc2n1 [Example 231, N-(4-((3R,4S)-3-amino-4-methylpyrrolidin-1-yl)-2-isopropyl-2H-indazol-5-yl)-1-(2,6-difluorophenyl)-6-oxo-1,6-dihydropyridazine-3-carboxamide]
CC(C)n1cc2c(N3CCC[C@@H](N)C3)c(NC(=O)c3ccc(=O)n(-c4c(F)cccc4F)n3)ccc2n1 [Example 232, (R)-N-(4-(3-aminopiperidin-1-yl)-2-isopropyl-2H-indazol-5-yl)-1-(2,6-difluorophenyl)-6-oxo-1,6-dihydropyridazine-3-carboxamide]
CC(C)n1cc2c(N3C[C@@H]4C[C@H]3CN4)c(NC(=O)c3ccc(=O)n(-c4c(F)cccc4F)n3)cc(F)c2n1 [Example 233, N-(4-((1S,4S)-2,5-diazabicyclo[2.2.1]heptan-2-yl)-7-fluoro-2-isopropyl-2H-indazol-5-yl)-1-(2,6-difluorophenyl)-6-oxo-1,6-dihydropyridazine-3-carboxamide]
C[C@@H]1CN(c2c(NC(=O)c3ccc(=O)n(-c4c(F)cccc4F)n3)ccc3nn(C(C)(C)C)cc23)C[C@@H]1N [Example 234, N-[4-[(3R,4R)-3-amino-4-methyl-pyrrolidin-1-yl]-2-tert-butyl-indazol-5-yl]-1-(2,6-difluorophenyl)-6-oxo-pyridazine-3-carboxamide]
CC(C)(C)n1cc2c(N3C[C@H](N)C4(CC4)C3)c(NC(=O)c3ccc(=O)n(-c4c(F)cccc4F)n3)ccc2n1 [Example 235, (R)-N-(4-(7-amino-5-azaspiro[2.4]heptan-5-yl)-2-(tert-butyl)-2H-indazol-5-yl)-1-(2,6-difluorophenyl)-6-oxo-1,6-dihydropyridazine-3-carboxamide]
CC1(C)CN(c2c(NC(=O)c3ccc(=O)n(-c4c(F)cccc4F)n3)ccc3nn(C(C)(C)C)cc23)C[C@@H]1N [Example 236, (R)-N-(4-(4-amino-3,3-dimethylpyrrolidin-1-yl)-2-(tert-butyl)-2H-indazol-5-yl)-1-(2,6-difluorophenyl)-6-oxo-1,6-dihydropyridazine-3-carboxamide]
CC1(C)CN(c2c(NC(=O)c3ccc(=O)n(-c4c(F)cccc4F)n3)ccc3nn(C(C)(C)C)cc23)C[C@H]1N [Example 237, (S)-N-(4-(4-amino-3,3-dimethylpyrrolidin-1-yl)-2-(tert-butyl)-2H-indazol-5-yl)-1-(2,6-difluorophenyl)-6-oxo-1,6-dihydropyridazine-3-carboxamide]
C[C@H]1CN(c2c(NC(=O)c3ccc(=O)n(-c4c(F)cccc4F)n3)ccc3nn(C(C)(C)C)cc23)C[C@@H]1N [Example 238, N-(4-((3R,4S)-3-amino-4-methylpyrrolidin-1-yl)-2-(tert-butyl)-2H-indazol-5-yl)-1-(2,6-difluorophenyl)-6-oxo-1,6-dihydropyridazine-3-carboxamide]
CC(C)(C)n1cc2c(N3CCC[C@@H](N)C3)c(NC(=O)c3ccc(=O)n(-c4c(F)cccc4F)n3)ccc2n1 [Example 239, (R)-N-(4-(3-aminopiperidin-1-yl)-2-(tert-butyl)-2H-indazol-5-yl)-1-(2,6-difluorophenyl)-6-oxo-1,6-dihydropyridazine-3-carboxamide]
CC(C)(C)n1cc2c(N3CCC(N)CC3)c(NC(=O)c3ccc(=O)n(-c4c(F)cccc4F)n3)ccc2n1 [Example 240, N-(4-(4-aminopiperidin-1-yl)-2-(tert-butyl)-2H-indazol-5-yl)-1-(2,6-difluorophenyl)-6-oxo-1,6-dihydropyridazine-3-carboxamide]
CC(C)(C)n1cc2c(N3CC[C@@H](N)C3)c(NC(=O)c3ccc(=O)n(-c4c(F)cccc4F)n3)ccc2n1 [Example 241, (R)-N-(4-(3-aminopyrrolidin-1-yl)-2-(tert-butyl)-2H-indazol-5-yl)-1-(2,6-difluorophenyl)-6-oxo-1,6-dihydropyridazine-3-carboxamide]
CC(C)(C)n1cc2c(N3C[C@@H](N)C4(CC4)C3)c(NC(=O)c3ccc(=O)n(-c4c(F)cccc4F)n3)ccc2n1 [Example 242, (S)-N-(4-(7-amino-5-azaspiro[2.4]heptan-5-yl)-2-(tert-butyl)-2H-indazol-5-yl)-1-(2,6-difluorophenyl)-6-oxo-1,6-dihydropyridazine-3-carboxamide]
CCC(C)(C)n1cc2c(N3C[C@H](C)[C@@H](N)C3)c(NC(=O)c3ccc(=O)n(-c4c(F)cccc4F)n3)ccc2n1 [Example 243, N-(4-((3R,4S)-3-amino-4-methylpyrrolidin-1-yl)-2-(tert-pentyl)-2H-indazol-5-yl)-1-(2,6-difluorophenyl)-6-oxo-1,6-dihydropyridazine-3-carboxamide]
CCC(C)(C)n1cc2c(N3C[C@@H](C)[C@@H](N)C3)c(NC(=O)c3ccc(=O)n(-c4c(F)cccc4F)n3)ccc2n1 [Example 244, 1-(2,6-difluorophenyl)-N-(4-[(3R,4R)-3-amino-4-methyltetrahydro-1H-pyrrol-1-yl]-2-(2-methylbut-2-yl)indazol-5-yl)-6-oxo-1,2-diazine-3-carboxamide]
C[C@@H]1CN(c2c(NC(=O)c3ccc(=O)n(-c4c(F)cccc4F)n3)ccc3nn(C(C)(C)C(C)(C)C)cc23)C[C@@H]1N [Example 245, N-(4-((3R,4R)-3-amino-4-methylpyrrolidin-1-yl)-2-(2,3,3-trimethylbutan-2-yl)-2H-indazol-5-yl)-1-(2,6-difluorophenyl)-6-oxo-1,6-dihydropyridazine-3-carboxamide]
CC(C)(C)C(C)(C)n1cc2c(N3C[C@H](N)C4(CC4)C3)c(NC(=O)c3ccc(=O)n(-c4c(F)cccc4F)n3)ccc2n1 [Example 246, (R)-N-(4-(7-amino-5-azaspiro[2.4]heptan-5-yl)-2-(2,3,3-trimethylbutan-2-yl)-2H-indazol-5-yl)-1-(2,6-difluorophenyl)-6-oxo-1,6-dihydropyridazine-3-carboxamide]
CC(C)C(C)(C)n1cc2c(N3C[C@@H](C)[C@@H](N)C3)c(NC(=O)c3ccc(=O)n(-c4c(F)cccc4F)n3)ccc2n1 [Example 247, N-(4-((3R,4R)-3-amino-4-methylpyrrolidin-1-yl)-2-(2,3-dimethylbutan-2-yl)-2H-indazol-5-yl)-1-(2,6-difluorophenyl)-6-oxo-1,6-dihydropyridazine-3-carboxamide]
CC(C)C(C)(C)n1cc2c(N3C[C@H](N)C4(CC4)C3)c(NC(=O)c3ccc(=O)n(-c4c(F)cccc4F)n3)ccc2n1 [Example 248, (R)-N-(4-(7-amino-5-azaspiro[2.4]heptan-5-yl)-2-(2,3-dimethylbutan-2-yl)-2H-indazol-5-yl)-1-(2,6-difluorophenyl)-6-oxo-1,6-dihydropyridazine-3-carboxamide]
N[C@H]1CN(c2c(NC(=O)c3ccc(=O)n(-c4c(F)cccc4F)n3)ccc3c2cnn3[C@H]2CCOC2)CC12CC2 [Example 249, 1-(2,6-difluorophenyl)-N-{4-[(7R)-7-amino-5-azaspiro[2.4]heptan-5-yl]-1-[(3S)-tetrahydro-3-furyl]indazol-5-yl}-6-oxo-1,2-diazine-3-carboxamide]
N[C@H]1CN(c2c(NC(=O)c3ccc(=O)n(-c4c(F)cccc4F)n3)ccc3c2cnn3[C@@H]2CCOC2)CC12CC2 [Example 250, N-(4-((R)-7-amino-5-azaspiro[2.4]heptan-5-yl)-1-((R)-tetrahydrofuran-3-yl)-1H-indazol-5-yl)-1-(2,6-difluorophenyl)-6-oxo-1,6-dihydropyridazine-3-carboxamide]
N[C@H]1CN(c2c(NC(=O)c3ccc(=O)n(-c4c(F)cccc4F)n3)ccc3c2cnn3C2CCOCC2)CC12CC2 [Example 251, (R)-N-(4-(7-amino-5-azaspiro[2.4]heptan-5-yl)-1-(tetrahydro-2H-pyran-4-yl)-1H-indazol-5-yl)-1-(2,6-difluorophenyl)-6-oxo-1,6-dihydropyridazine-3-carboxamide]
C[C@@H]1CN(c2c(NC(=O)c3ccc(=O)n(-c4c(F)cccc4F)n3)ccc3c2cnn3[C@@H]2CCCOC2)C[C@@H]1N [Example 252, N-(4-((3R,4R)-3-amino-4-methylpyrrolidin-1-yl)-1-((R)-tetrahydro-2H-pyran-3-yl)-1H-indazol-5-yl)-1-(2,6-difluorophenyl)-6-oxo-1,6-dihydropyridazine-3-carboxamide]
C[C@@H]1CN(c2c(NC(=O)c3ccc(=O)n(-c4c(F)cccc4F)n3)ccc3c2cnn3[C@H]2CCCOC2)C[C@@H]1N [Example 253, N-(4-((3R,4R)-3-amino-4-methylpyrrolidin-1-yl)-1-((S)-tetrahydro-2H-pyran-3-yl)-1H-indazol-5-yl)-1-(2,6-difluorophenyl)-6-oxo-1,6-dihydropyridazine-3-carboxamide]
C[C@@H]1CN(c2c(NC(=O)c3ccc(=O)n(-c4c(F)cccc4F)n3)ccc3c2cnn3[C@H]2CCOC2)C[C@@H]1N [Example 255, N-(4-((3R,4R)-3-amino-4-methylpyrrolidin-1-yl)-1-((S)-tetrahydrofuran-3-yl)-1H-indazol-5-yl)-1-(2,6-difluorophenyl)-6-oxo-1,6-dihydropyridazine-3-carboxamide]
CC[C@H](C)n1ncc2c(N3C[C@@H](C)[C@@H](N)C3)c(NC(=O)c3ccc(=O)n(-c4c(F)cccc4F)n3)ccc21 [Example 256, N-(4-((3R,4R)-3-amino-4-methylpyrrolidin-1-yl)-1-((S)-sec-butyl)-1H-indazol-5-yl)-1-(2,6-difluorophenyl)-6-oxo-1,6-dihydropyridazine-3-carboxamide]

Reference: US20250122174A1 (Shenzhen Yuanli Shenwan Innovative Medicine Co., Ltd., priority 2022, published 2025)
